For one assay, the system named is Human platelets. Briefly: Inhibition of induced threshold aggregation of human platelets (agonist U44069). Type of assay: cell-based. The following applies: human platelet rich plasma, aggregating agent U44069; read-out: Inhibition of platelet aggregation (IC50 in mg/ml). The method, then:
Inhibition of Induced Threshold Aggregation of Human Platelets
Human platelet rich plasma (PRP) is prepared from venous blood of male volunteers who have taken no medication for ten days prior to test. Blood is transferred into plastic centrifuge tubes containing 3.8% Trisodium Citrate in 0.9% NaCl (in a ratio of blood to anticoagulant of 9:1), mixed by gentle inversion, and centrifuged at room temperature for ten minutes at 116 g. The supernatant (PRP) is transferred into plastic tubes. Platelet poor plasma (PPP) is obtained by centrifuging the residual blood cells at 4000 g for ten minutes. PRP is left to stand at least one half hour prior to testing.
Platelet Aggregation is measured using a Payton Aggregometer and Recorder. Following calibration of the instrument, a cuvette containing PRP (225 microliters) is incubated for three minutes at 37°C. Drug vehicle (control), or a drug concentration is then added in a volume of 0.5 microliter. After one minute, the aggregating agent (U44069, 9,11-dideoxy-9a,11a-epoxymethano PGF2a) is added to the cuvette in a volume of 25 microliters. Recording is continued until the maximal response is obtained.
The threshold (approximately 20 - 30% of maximum) aggregation concentration of the agonist to be used is first determined in the presence of the drug vehicle (control). Test compounds are then assayed at 10 or 30 micrograms/ml initially, and if active, are further tested in order to determine the concentration range at which 20-80% of the threshold aggregatory response is inhibited. All drugs are dissolved in dimethylsulfoxide.
The height of the aggregation response (measured in divisions of the recorder paper, 1 division = 2.5 mm) in the presence of the drug is recorded, and calculated as percent inhibition of the mean height of the control threshold responses. The IC₅₀ (drug concentration which inhibits 50% of the aggregatory response) is obtained by regression analysis.

The subject of assay [1] is Guinea Pig Tracheal Chain. In words: Estimation of pA2 values in guinea pig tracheal chain (contractile agonist U-44069). Also on record: species or system guinea pigs. Conditions: for Kb: Cavia porcellus, 5 min, guinea pig tracheal chain, agonist U-44069. The text has this: Estimation of pA₂ Values in Guinea Pig Tracheal Chain
Male albino Hartley strain guinea pigs (300-350 gm) were sacrificed by a blow to the head and exsanguinated. The trachea was removed, freed of extraneous tissue and sectioned into rings of 1-2 mm thickness. Five rings were tied together in series, ensuring that the tracheal muscle lay in the same vertical plane, and the cartilage of each ring then separated at a point directly opposite the muscle. The chains were suspended under 1 gm resting tension in modified Krebs solution (NaCl, 6.87; NaHCO₃, 2.1; dextrose, 2.1; KCl, 0.32; CaCl₂, 0.28; MgSO₄, 7H₂O, 0.11; KH₂PO₄, 0.16; gm/L: equilibrated with 5% CO₂ in O₂ for 1 hour) containing indomethacin (1.4 x 10-⁵M) to suppress endogenous protaglandin synthesis, Organ bath temperature was maintained at 37°C and 5% CO₂ in O₂ diffused continously. Isometric tension changes were recorded from a Gould-Statham (UTC 2) force displacement transducer connected to a Beckman Type R Dynograph. For assay purposes initial maximal contractions were elicited with a high concentration of the contractile agonist [U-44069, 9.11-dideoxy-9a,11a-epoxymethano PGF2a] and the tissue sub sequently washed at intervals until tension returned to baseline. Agonist dose response curves were obtained using a cumulative-dose schedule (4-8 doses) and the preparations then washed at regular intervals until baseline tension was recorded. After an appropriate interval (1-1.5 hrs) agonist dose response curves were repeated in the presence of antagonist drug concentrations. […] EC₅₀ values were obtained by regression analysis and used to calculate 'apparent' and Schild Plot pA₂ values by the method of Tallarida and Murray 1981.

Setting [2] is: relative to compound 2 (so in the source).

Values after ≈ are worked out from the molar mass of the structure shown.

For `O=C(O)C1CCCc2c(n(Cc3ccc(Cl)cc3)c3ccc(F)cc23)C1` (stereo not shown) [Compound 3, 2-Fluoro-5-(p-chlorobenzyl)-5,6,7,8,9,10-hexahydrocyclo hept[b]indole-7-carboxylic acid], in the assay with Human platelets, the IC50 came to 7.46 µg/mL (≈ 20.1 µM). Besides, in assay [1], the Kb was 129 nM.
`COc1ccc2c(c1)c1c(n2Cc2ccc(Cl)cc2)CC(C(=O)O)CC1` (stereo not shown) [Compound B, reference compound]: the IC50 in the assay with Human platelets was more than 30 µg/mL. Besides, the Kb in assay [1] was 158 nM.
Turning to `O=C(O)CC1CCCc2c(n(Cc3ccc(Cl)cc3)c3ccc(F)cc23)C1` (stereo not shown) [Compound 1, 2-Fluoro-5-(p-chlorobenzyl)-5,6,7,8,9,10-hexahydrocyclo hept[b]indole-7-acetic acid], the IC50 with Human platelets amounted to 0.05 µg/mL (≈ 0.13 µM). The Kb in assay [1] is 3.16 nM.
Take `O=C(O)CC1CCCCc2c1c1cc(F)ccc1n2Cc1ccc(Cl)cc1` (stereo not shown) [Compound 2, 2-Fluoro-5-(p-chlorobenzyl)-5,6,7,8,9,10-hexahydrocyclo hept[b]indole-10-acetic acid]: the IC50 in the assay with Human platelets worked out at 4.5 µg/mL (≈ 11.7 µM). Also, in assay [1], the Kb is 42.7 nM.
As for `O=C(O)CC1CCCCc2c1n(Cc1ccc(Cl)cc1)c1ccc(F)cc21` (stereo not shown) [Compound 4, 2-Fluoro-5-(p-chlorobenzyl)-5,6,7,8,9,10-hexahydrocyclohept[b]indole-6-acetic acid], the IC50 in the assay on Human platelets was found to be 0.015 µg/mL (≈ 0.0389 µM). Further, the Kb in assay [1] was 1.35 nM.
For the compound `CS(=O)(=O)c1ccc(Cn2c3c(c4cc(F)cc(F)c42)CCCC(CC(=O)O)C3)cc1` (stereo not shown) [Compound 36, 2,4-Difluoro-5(p-methylsulfonylbenzyl)-5,6,7,8,9,10-hexahydrocyclohept[b]indole-7-acetic acid], the IC50 in the assay on Human platelets turned out to be 0.012 µg/mL (≈ 0.0268 µM). In addition, in assay [1], the Kb is 8.32 nM.
For the compound `COc1ccc2c(c1)c1c(n2Cc2ccc(Cl)cc2)CC(CC(=O)O)CC1` (stereo not shown) [Compound A, reference compound], the IC50 with Human platelets stood at 3.5 µg/mL (≈ 9.12 µM). Besides, in assay [1], the Kb is 158 nM. In assay [1] (setting [2]), the “pA2 lower than that of compound 2” value is recorded as 1.7 log units and the “potency factor corresponding to the pA2 difference” value is 15.

Values taken from patent publication EP0304156A1, “Cyclohept b indolealkanoic acids” (MERCK FROSST CANADA INC., priority 1987, dated 1989).
